Experimental data: paper PMC6996867 (Journal of Medicinal Chemistry, 2010)

Columns and labels:
pKa = type: physicochemical
[1] = tested on: P. berghei strain GFP ANKA; assay: In vivo antimalarial activity, P. berghei infected malaria mouse model; set-up: species or system Plasmodium berghei (female NMRI mice)
[2] = In vivo pharmacokinetic studies in mice

C[C@H]1CCc2c([nH]c3ccccc23)[C@@]2(N1)C(=O)Nc1ccc(Br)cc12 [Compound 1a, (1R,3S)-5′-Bromo-3-methyl-3,4,5,10-tetrahydro-2H-spiro[azepino[3,4-b]indole-1,3′-indol]-2′(1′H)-one]
pKa (pKa; pKa1, first pKa): 5.2

C[C@H]1Cc2c([nH]c3ccc(F)cc23)[C@@]2(N1)C(=O)Nc1ccc(Cl)cc12 [Compound 17a, (1R,3S)-5′-Chloro-6-fluoro-3-methyl-2,3,4,9-tetrahydrospiro[β-carboline-1,3′-indol]-2′(1′H)-one]
pKa (pKa; pKa1, first pKa): 4.8

C[C@H]1Cc2c([nH]c3cc(Cl)ccc23)[C@@]2(N1)C(=O)Nc1ccc(Cl)cc12 [Compound 18a, (1R,3S)-5′,7-Dichloro-3-methyl-2,3,4,9-tetrahydrospiro[β-carboline-1,3′-indol]-2′(1′H)-one]
pKa (pKa; pKa1, first pKa): 5.2
pKa (pKa; pKa2, second pKa): 10.6

C[C@H]1Cc2c([nH]c3cc(F)c(F)cc23)[C@@]2(N1)C(=O)Nc1ccc(Cl)cc12 [Compound 20a, (1R,3S)-5′-Chloro-6,7-difluoro-3-methyl-2,3,4,9-tetrahydrospiro[β-carboline-1,3′-indol]-2′(1′H)-one]
pKa (pKa; pKa1, first pKa): 4.9
full cure (no parasites at day 30) ([1]; 3 × 30 mg/kg oral doses): four out of five mice
toxicity or behavioral changes after drug administration ([1]; treated mice, any dosing regimen): neither toxicity nor behavioral changes
total systemic clearance relative to hepatic blood flow ([2]; mice, intravenous administration): ~10 % hepatic blood flow
exposure (AUC∞) greater than 9a ([2]; mice, oral, 20a vs 9a): 18 fold
half-life ([2]; mouse, plasma): 3 h
